This note sets out measurements from US6470226B1 (priority 1997, dated 2002).

The assay deals with voltage dependent calcium channels. Type of assay: cell-based, chick.

Regarding `N=C(N)NC(=O)c1nc(Cl)c(N)nc1N` [amiloride], the “effect on voltage dependent calcium channels (maximum current induced by depolarizing voltage steps)” value is given as “no effect on calcium ion channels”.
In the case of `COC(=O)C1=C(C)NC(C)=C([N+](=O)[O-])C1c1ccccc1C(F)(F)F` (stereo not drawn) [Bay-k 8644], the “effect on voltage dependent calcium channels (maximum current induced by depolarizing voltage steps)” value was “stimulates L-type calcium channels” and the “reversibility of effect (washout)” value is “reversibly”.
Consider `O=C1NC(=O)C(c2ccccc2)(c2ccccc2)N1` [phenytoin], for which the “effect on voltage dependent calcium channels (maximum current induced by depolarizing voltage steps)” value was “no effect on calcium ion channels”.
In the case of w-conotoxin MVIIA, the “effect on voltage dependent calcium channels (maximum current induced by depolarizing voltage steps)” value is “high affinity for N-type calcium channels” and the “reversibility of effect (washout)” value is “irreversible”.
